Measurements as given in patent publication US7498441B2, “Biaryltetrahydroisoquinoline piperidines as selective MCH receptor antagonists for the treatment of obesity and related disorders” (Schering Corporation, priority 2003, dated 2009).
pKi: −log10 of the molar value. Read-outs that look alike come from different tables or passages of the source.

Target: T1, MCH receptor (Homo sapiens, UniProt Q99705)
T1 construct: expressed in transfected cells; host or cells: CHO cells
Test: MCH Receptor Binding Assay ([125I]-MCH, SPA, membranes from CHO cells expressing the MCH receptor)
Procedure: Membranes from CHO cells expressing the MCH receptor were prepared by lysing cells with 5 mM HEPES for 15 min at 4 C. Cell lysates were centrifuged ([…], 15 min) and the pellet was resuspended in 5 mM HEPES. For each 96-well plate (Microlite, Dynex Technologies), 1 mg of cell membranes were incubated with 10 mg of wheat germ agglutinin SPA beads (Amersham) for 5 min at 4 C in a volume of 10 ml of binding buffer (25 mM HEPES, 10 mM MGCl2, 10 mM NaCl, 5 mM MnCl2, 0.1% BSA). The membrane/bead mixture was centrifuged (1500×g, 3.5 min), the supernatant was aspirated, and the pellet was resuspended in 10 ml binding buffer. The centrifugation, aspiration and resuspension were then repeated. The membrane/bead mixture (100 μl) was then added to 96-well plates containing 50 μl of 500 pM [^125I]-MCH (NEN) and […] of the appropriate concentration of compound (4× the desired final concentration). Nonspecific binding was determined by including 1 μM MCH in the binding reaction. The binding reaction was incubated at room temperature for 2 h. Plates were then analyzed in a TOPCOUNT microplate scintillation counter (Packard). Data was analyzed and Ki values for the compounds of Formula 1 were determined using GraphPad Prim.

[1] = MCH Receptor Activity (Preferred Compounds), dissociation constants, read-out: Ave KiMCH
[2] = MCH Receptor Antagonist Activity, rated A/B/C, read-out: Av. MCH Ki

T1 sequence (Q99705 whole entry): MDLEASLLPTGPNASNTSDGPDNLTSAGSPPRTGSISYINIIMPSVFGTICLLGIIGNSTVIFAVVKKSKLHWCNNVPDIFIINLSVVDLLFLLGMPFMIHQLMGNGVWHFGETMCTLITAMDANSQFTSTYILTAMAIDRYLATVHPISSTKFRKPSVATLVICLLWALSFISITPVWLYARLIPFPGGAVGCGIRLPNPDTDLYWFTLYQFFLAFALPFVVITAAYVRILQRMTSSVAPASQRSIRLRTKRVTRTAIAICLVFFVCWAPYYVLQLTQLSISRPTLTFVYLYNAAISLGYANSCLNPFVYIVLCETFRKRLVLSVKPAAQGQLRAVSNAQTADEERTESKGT

Compound | pKi [1] | pKi [2]
N#Cc1cccc(-c2ccc3c(c2)CCN(CC(=O)Nc2cc(Cl)cc(Cl)c2)C3C2CCN(C3CCCC3)CC2)c1 (stereo not shown) [Example 1] | 7.95 | –
O=C(CN1CCc2cc(-c3cccc(C(F)(F)F)c3)ccc2C1C1CCN(C2CCCC2)CC1)Nc1cc(Cl)cc(Cl)c1 (stereo not shown) [Example 1] | – | 6.30 to 7.00
O=C(CN1CCc2cc(-c3ccccc3)ccc2C1C1CCN(C2CCCC2)CC1)Nc1cc(Cl)cc(Cl)c1 (stereo not shown) [Example 2] | – | 6.30 to 7.00
N#Cc1ccc(-c2ccc3c(c2)CCN(CC(=O)Nc2cc(Cl)cc(Cl)c2)C3C2CCN(C3CCCC3)CC2)cc1 (stereo not shown) [Example 3] | – | 6.30 to 7.00
O=C(CN1CCc2cc(-c3cccc(F)c3)ccc2C1C1CCN(C2CCCC2)CC1)Nc1cc(Cl)cc(Cl)c1 (stereo not shown) [Example 4] | – | 7.00 to 9.00
O=C(CN1CCc2cc(-c3cccc(Cl)c3)ccc2C1C1CCN(C2CCCC2)CC1)Nc1cc(Cl)cc(Cl)c1 (stereo not shown) [Example 5] | – | 7.00 to 9.00
COc1cccc(-c2ccc3c(c2)CCN(CC(=O)Nc2cc(Cl)cc(Cl)c2)C3C2CCN(C3CCCC3)CC2)c1 (stereo not shown) [Example 6] | – | 7.00 to 9.00
O=C(CN1CCc2cc(-c3cccc(OC(F)(F)F)c3)ccc2C1C1CCN(C2CCCC2)CC1)Nc1cc(Cl)cc(Cl)c1 (stereo not shown) [Example 8] | – | 7.00 to 9.00
O=Cc1cccc(-c2ccc3c(c2)CCN(CC(=O)Nc2cc(Cl)cc(Cl)c2)C3C2CCN(C3CCCC3)CC2)c1 (stereo not shown) [Example 9] | – | 7.00 to 9.00
O=C(CN1CCc2cc(-c3cc(Cl)ccc3Cl)ccc2C1C1CCN(C2CCCC2)CC1)Nc1cc(Cl)cc(Cl)c1 (stereo not shown) [Example 10] | – | 7.00 to 9.00
O=C(CN1CCc2cc(-c3ccncc3)ccc2C1C1CCN(C2CCCC2)CC1)Nc1cc(Cl)cc(Cl)c1 (stereo not shown) [Example 12] | 7.62 | –
O=C(CN1CCc2cc(-c3ccsc3)ccc2C1C1CCN(C2CCCC2)CC1)Nc1cc(Cl)cc(Cl)c1 (stereo not shown) [Example 13] | – | 6.30 to 7.00
O=C(CN1CCc2cc(-c3cccc(-c4ncc[nH]4)c3)ccc2C1C1CCN(C2CCCC2)CC1)Nc1cc(Cl)cc(Cl)c1 (stereo not shown) [Example 14] | – | 7.00 to 9.00
O=C(CN1CCc2cc(-c3ccc[nH]3)ccc2C1C1CCN(C2CCCC2)CC1)Nc1cc(Cl)cc(Cl)c1 (stereo not shown) [Example 15] | – | 6.30 to 7.00
O=C(CN1CCc2cc(-c3cccnc3)ccc2C1C1CCN(C2CCCC2)CC1)Nc1cc(Cl)cc(Cl)c1 (stereo not shown) [Example 16] | 7.64 | –
CN1CCC(C2c3ccc(-c4cccc(C#N)c4)cc3CCN2CC(=O)Nc2cc(Cl)cc(Cl)c2)CC1 (stereo not shown) [Example 17] | 7.66 | –
O=C(CN1CCc2cc(-c3cccc(C(=O)O)c3)ccc2C1C1CCN(C2CCCC2)CC1)Nc1cc(Cl)cc(Cl)c1 (stereo not shown) [Example 18] | – | < 6.30
N#Cc1cccc(-c2ccc3c(c2)CCN(CC(=O)Nc2cc(Cl)cc(Cl)c2)C3C2CCN(Cc3ccccc3)CC2)c1 (stereo not shown) [Example 19] | 7.64 | 7.00 to 9.00
N#Cc1cccc(-c2ccc3c(c2)CCN(CC(=O)Nc2cc(Cl)cc(Cl)c2)C3C2CCNCC2)c1 (stereo not shown) [Example 20] | 7.59 | –
O=C(CN1CCc2cc(-c3cccc4cccnc34)ccc2C1C1CCN(C2CCCC2)CC1)Nc1cc(Cl)cc(Cl)c1 (stereo not shown) [Example 20] | – | < 6.30
N#Cc1cccc(-c2ccc3c(c2)CCN(CC(=O)Nc2cc(Cl)cc(Cl)c2)C3C2CCN(CCCCCO)CC2)c1 (stereo not shown) [Example 21] | 8.17 | –
N#Cc1cccc(-c2ccc3c(c2)CCN(CC(=O)Nc2cc(Cl)cc(Cl)c2)C3C2CCN(C3CCCCCC3)CC2)c1 (stereo not shown) [Example 22] | 8.00 | –
CN1CCC(N2CCC(C3c4ccc(-c5cccc(C#N)c5)cc4CCN3CC(=O)Nc3cc(Cl)cc(Cl)c3)CC2)CC1 (stereo not shown) [Example 23] | – | 7.00 to 9.00

Compound | pKi [1] | pKi [2]
N#Cc1cccc(-c2ccc3c(c2)CCN(CC(=O)Nc2cc(Cl)cc(Cl)c2)C3C2CCN(C3CCOCC3)CC2)c1 (stereo not shown) [Example 24] | 8.19 | –
N#Cc1cccc(-c2ccc3c(c2)CCN(CC(=O)Nc2cc(Cl)cc(Cl)c2)C3C2CCN(C3CCSC3)CC2)c1 (stereo not shown) [Example 25] | 8.15 | –
N#Cc1cccc(-c2ccc3c(c2)CCN(CC(=O)Nc2cc(Cl)cc(Cl)c2)C3C2CCN(Cc3ccoc3)CC2)c1 (stereo not shown) [Example 26] | 7.85 | –
COc1ccccc1CN1CCC(C2c3ccc(-c4cccc(C#N)c4)cc3CCN2CC(=O)Nc2cc(Cl)cc(Cl)c2)CC1 (stereo not shown) [Example 27] | 7.80 | –
N#Cc1cccc(-c2ccc3c(c2)CCN(CC(=O)Nc2cc(Cl)cc(Cl)c2)C3C2CCN(CC3CC3)CC2)c1 (stereo not shown) [Example 28] | 8.03 | –
N#Cc1cccc(-c2ccc3c(c2)CCN(CC(=O)Nc2cc(Cl)cc(Cl)c2)C3C2CCN(C3CCC3)CC2)c1 (stereo not shown) [Example 29] | 7.82 | –
N#Cc1cccc(-c2ccc3c(c2)CCN(CC(=O)Nc2cc(Cl)cc(Cl)c2)C3C2CCN(CCCc3ccccc3)CC2)c1 (stereo not shown) [Example 30] | – | 7.00 to 9.00
CC(C)N1CCC(C2c3ccc(-c4cccc(C#N)c4)cc3CCN2CC(=O)Nc2cc(Cl)cc(Cl)c2)CC1 (stereo not shown) [Example 31] | – | 7.00 to 9.00
N#Cc1cccc(-c2ccc3c(c2)CCN(CC(=O)Nc2cc(Cl)cc(Cl)c2)C3C2CCN(C3CCCCC3)CC2)c1 (stereo not shown) [Example 32] | 8.00 | –
N#Cc1cccc(-c2ccc3c(c2)CCN(CC(=O)Nc2cc(Cl)cc(Cl)c2)C3C2CCN(C(=O)C3CCCC3)CC2)c1 (stereo not shown) [Example 33] | – | < 6.30
CCN(CC)C(=O)N1CCC(C2c3ccc(-c4cccc(C#N)c4)cc3CCN2CC(=O)Nc2cc(Cl)cc(Cl)c2)CC1 (stereo not shown) [Example 34] | – | 6.30 to 7.00
CC(=O)N1CCC(C2c3ccc(-c4cccc(C#N)c4)cc3CCN2CC(=O)Nc2cc(Cl)cc(Cl)c2)CC1 (stereo not shown) [Example 35] | – | < 6.30
CS(=O)(=O)N1CCC(C2c3ccc(-c4cccc(C#N)c4)cc3CCN2CC(=O)Nc2cc(Cl)cc(Cl)c2)CC1 (stereo not shown) [Example 36] | – | < 6.30
CN(C)S(=O)(=O)N1CCC(C2c3ccc(-c4cccc(C#N)c4)cc3CCN2CC(=O)Nc2cc(Cl)cc(Cl)c2)CC1 (stereo not shown) [Example 37] | – | 6.30 to 7.00
N#Cc1cccc(-c2ccc3c(c2)CCN(CC(=O)Nc2cc(Cl)cc(Cl)c2)C3C2CCN(Cc3nccs3)CC2)c1 (stereo not shown) [Example 38] | – | 6.30 to 7.00
CCS(=O)(=O)N1CCC(C2c3ccc(-c4cccc(C#N)c4)cc3CCN2CC(=O)Nc2cc(Cl)cc(Cl)c2)CC1 (stereo not shown) [Example 39] | – | < 6.30
N#Cc1cccc(-c2ccc3c(c2)CCN(C(=O)Nc2cc(Cl)cc(Cl)c2)C3C2CCN(Cc3ccccc3)CC2)c1 (stereo not shown) [Example 40] | – | < 6.30
N#Cc1cccc(-c2ccc3c(c2)CCN(C(=O)Nc2ccc(Cl)c(Cl)c2)C3C2CCN(Cc3ccccc3)CC2)c1 (stereo not shown) [Example 41] | – | < 6.30
N#Cc1cccc(-c2ccc3c(c2)CCN(Cc2nc4ccccc4[nH]2)C3C2CCN(Cc3ccccc3)CC2)c1 (stereo not shown) [Example 42] | – | 6.30 to 7.00
N#Cc1cccc(-c2ccc3c(c2)CCN(Cc2nc4cc(Cl)c(Cl)cc4[nH]2)C3C2CCN(Cc3ccccc3)CC2)c1 (stereo not shown) [Example 43] | – | 7.00 to 9.00
CN1CCC(C2c3ccc(-c4cccc(C#N)c4)cc3CCN2Cc2nc3cc(Cl)c(Cl)cc3[nH]2)CC1 (stereo not shown) [Example 44] | – | 6.30 to 7.00
N#Cc1cccc(-c2ccc3c(c2)CCN(Cc2nc4cc(F)c(Cl)cc4[nH]2)C3C2CCN(Cc3ccccc3)CC2)c1 (stereo not shown) [Example 45] | – | 7.00 to 9.00
